This passage reports inhibition results from patent US12522612B2, “PDE4 inhibitors, pharmaceutical compositions, and therapeutic applications” (BioTheryX, Inc., priority 2019, dated 2026).

The structures appear in SMILES notation. Some results are limits rather than exact numbers.

In this test the test system is TNF-α. Kind of test: Cell-based TNF-α inhibition assay in LPS-induced PBMCs (Meso Scale). To be noted: PBMC, PBMCs pretreated 1 h, LPS 100 ng/mL 18-24 h, relative to stimulated DMSO control; for inhibition at 0.1 µM: compound concentration 0.1 μM; for inhibition at 1 µM: compound concentration 1 μM. How it is done: Frozen primary blood mononuclear cells (PBMCs) were quick thawed, washed once with RPMI 1640 media supplemented with 10% fetal bovine serum, 1% penicillin, and 1% streptomycin, and plated in a 96 well plate at 200,000 cells per well. The cells were pretreated with DMSO only as a control or a compound for 1 h, and then induced with LPS (lipopolysaccharide) (100 ng/mL) for 18-24 h. The supernatant was analyzed for TNF-α using the Meso Scale assay. Compound activity was determined as a percentage of the stimulated DMSO control. The results are summarized in Table 1, where A represents a percent inhibition value ≥60%; B represents a percent inhibition value <60% and ≥40%; C represents a percent inhibition value <40% and >20%; and D represents a single percent inhibition value <20%.

Regarding `CCOc1cc([C@@H](CS(C)(=O)=O)N2Cc3c(csc3NC(=O)C(F)(F)F)C2=O)ccc1OC` [Compound A1, (S)—N-(5-(1-(3-ethoxy-4-methoxyphenyl)-2-(methylsulfonyl)ethyl)-4-oxo-5,6-dihydro-4H-thieno[3,4-c]pyrrol-1-yl)-2,2,2-trifluoroacetamide], the inhibition at 0.1 µM is less than 20% and the inhibition at 1 µM lay within 40 to 60%.
As for `CCOc1cc([C@@H](CS(C)(=O)=O)N2Cc3c(NC(=O)COC)csc3C2=O)ccc1OC` [Compound A2, (S)—N-(5-(1-(3-ethoxy-4-methoxyphenyl)-2-(methylsulfonyl)ethyl)-6-oxo-5,6-dihydro-4H-thieno[2,3-c]pyrrol-3-yl)-2-methoxyacetamide], the inhibition at 0.1 µM is 20 to 40% and the inhibition at 1 µM was 20 to 40%.
Turning to `CCOc1cc([C@@H](CS(C)(=O)=O)N2Cc3c(NC(=O)C4CC4)csc3C2=O)ccc1OC` [Compound A3, (S)—N-(5-(1-(3-ethoxy-4-methoxyphenyl)-2-(methylsulfonyl)ethyl)-6-oxo-5,6-dihydro-4H-thieno[2,3-c]pyrrol-3-yl)cyclopropanecarboxamide], the inhibition at 0.1 µM lay within 20 to 40% and the inhibition at 1 µM was 20 to 40%.
For the compound `COc1ccc([C@@H](CS(C)(=O)=O)N2C(=O)c3csc(NC(C)=O)c3C2=O)cc1OC1CC1` [Compound A4, (S)—N-(5-(1-(3-cyclopropoxy-4-methoxyphenyl)-2-(methylsulfonyl)ethyl)-4,6-dioxo-5,6-dihydro-4H-thieno[3,4-c]pyrrol-1-yl)acetamide], the inhibition at 0.1 µM was in the range of 40 to 60% and the inhibition at 1 µM is no less than 60%.
Consider `COc1ccc([C@H](CS(C)(=O)=O)N2C(=O)c3csc(NC(C)=O)c3C2=O)cc1OC1CC1` [Compound A5, (R)—N-(5-(1-(3-cyclopropoxy-4-methoxyphenyl)-2-(methylsulfonyl)ethyl)-4,6-dioxo-5,6-dihydro-4H-thieno[3,4-c]pyrrol-1-yl)acetamide], for which the inhibition at 0.1 µM was less than 20% and the inhibition at 1 µM lay within 20 to 40%.
For `CCOc1cc([C@@H](CS(=O)(=O)C2CC2)N2C(=O)c3csc(NC(C)=O)c3C2=O)ccc1OC` [Compound A6, (S)—N-(5-(2-(cyclopropylsulfonyl)-1-(3-ethoxy-4-methoxyphenyl)ethyl)-4,6-dioxo-5,6-dihydro-4H-thieno[3,4-c]pyrrol-1-yl)acetamide], in that order: less than 20% and 20 to 40%.
For `CCOc1cc([C@@H](CS(=O)(=O)C2CC2)N2C(=O)c3csc(NC(=O)C(F)(F)F)c3C2=O)ccc1OC` [Compound A7, (S)—N-(5-(2-(cyclopropylsulfonyl)-1-(3-ethoxy-4-methoxyphenyl)ethyl)-4,6-dioxo-5,6-dihydro-4H-thieno[3,4-c]pyrrol-1-yl)-2,2,2-trifluoroacetamide] the same measures were less than 20% and less than 20%.
In the case of `CCOc1cc([C@H](CS(=O)(=O)C2CC2)N2C(=O)c3csc(NC(=O)C(F)(F)F)c3C2=O)ccc1OC` [Compound A8, (R)—N-(5-(2-(cyclopropylsulfonyl)-1-(3-ethoxy-4-methoxyphenyl)ethyl)-4,6-dioxo-5,6-dihydro-4H-thieno[3,4-c]pyrrol-1-yl)-2,2,2-trifluoroacetamide], the inhibition at 0.1 µM was less than 20% and the inhibition at 1 µM is less than 20%.
Consider `CCOc1cc([C@H](CS(=O)(=O)C2CC2)N2C(=O)c3csc(NC(=O)COC)c3C2=O)ccc1OC` [Compound A9, (R)—N-(5-(2-(cyclopropylsulfonyl)-1-(3-ethoxy-4-methoxyphenyl)ethyl)-4,6-dioxo-5,6-dihydro-4H-thieno[3,4-c]pyrrol-1-yl)-2-methoxyacetamide], for which the inhibition at 0.1 µM fell in the range of 40 to 60% and the inhibition at 1 µM was no less than 60%.
As to `CCOc1cc([C@H](CS(=O)(=O)C2CC2)N2C(=O)c3csc(NC(C)=O)c3C2=O)ccc1OC` [Compound A10, (R)—N-(5-(2-(cyclopropylsulfonyl)-1-(3-ethoxy-4-methoxyphenyl)ethyl)-4,6-dioxo-5,6-dihydro-4H-thieno[3,4-c]pyrrol-1-yl)acetamide], the inhibition at 0.1 µM was less than 20% and the inhibition at 1 µM was no less than 60%.
For `CCOc1cc([C@@H](CS(=O)(=O)C2CC2)N2C(=O)c3csc(NC(=O)COC)c3C2=O)ccc1OC` [Compound A11, (S)—N-(5-(2-(cyclopropylsulfonyl)-1-(3-ethoxy-4-methoxyphenyl)ethyl)-4,6-dioxo-5,6-dihydro-4H-thieno[3,4-c]pyrrol-1-yl)-2-methoxyacetamide] the same measures were 20 to 40% and no less than 60%.
For `CCOc1cc([C@@H](CS(C)(=O)=O)N2C(=O)c3cc(CCCCC(=O)N4CCC(C#Cc5cccc6c5CN(C5CCC(=O)NC5=O)C6=O)CC4)cc(NC(C)=O)c3C2=O)ccc1OC` (stereo partly drawn) [Compound B16, N-(6-(5-(4-((2-(2,6-dioxopiperidin-3-yl)-1-oxoisoindolin-4-yl)ethynyl)piperidin-1-yl)-5-oxopentyl)-2-((S)-1-(3-ethoxy-4-methoxyphenyl)-2-(methylsulfonyl)ethyl)-1,3-dioxoisoindolin-4-yl)acetamide], in that order: no less than 60% and no less than 60%.
For `CCOc1cc([C@@H](CS(C)(=O)=O)N2C(=O)c3cccc(NC(=O)CCOCCOCCOCCNc4cccc5c4C(=O)N(C4CCC(=O)NC4=O)C5=O)c3C2=O)ccc1OC` (stereo partly drawn) [Compound B43, 3-(2-(2-(2-((2-(2,6-Dioxopiperidin-3-yl)-1,3-dioxoisoindolin-4-yl)amino)ethoxy)-ethoxy)ethoxy)-N-(2-((S)-1-(3-ethoxy-4-methoxyphenyl)-2-(methylsulfonyl)ethyl)-1,3-dioxoisoindolin-4-yl)propanamide] the same measures were no less than 60% and no less than 60%.
In the case of `CCOc1cc([C@@H](CS(C)(=O)=O)N2C(=O)c3cccc(NC(=O)CCCCCCNCc4ccc(OCc5scc6c5CN([C@H]5CCC(=O)NC5=O)C6=O)cc4)c3C2=O)ccc1OC` [Compound B44, 7-((4-((5-((S)-2,6-Dioxopiperidin-3-yl)-4-oxo-5,6-dihydro-4H-thieno[3,4-c]pyrrol-1-yl)methoxy)benzyl)amino)-N-(2-((S)-1-(3-ethoxy-4-methoxyphenyl)-2-(methylsulfonyl)ethyl)-1,3-dioxoisoindolin-4-yl)heptanamide], the inhibition at 1 µM is no less than 60%.
As to `O=C1CCC(N2Cc3c(cc(F)cc3C3CCN(CCCCCCCCCOc4cc(C(=O)Nc5c(Cl)cncc5Cl)ccc4OC(F)F)CC3)C2=O)C(=O)N1` (centres unmarked) [Compound B45, N-(3,5-Dichloropyridin-4-yl)-4-(difluoromethoxy)-3-((9-(4-(2-(2,6-dioxopiperidin-3-yl)-6-fluoro-1-oxoisoindolin-4-yl)piperidin-1-yl)nonyl)oxy)benzamide], the inhibition at 1 µM is no less than 60%.
As for `O=C1CCC(N2Cc3c(cc(F)cc3C3CCN(CCCCCOc4cc(C(=O)Nc5c(Cl)cncc5Cl)ccc4OC(F)F)CC3)C2=O)C(=O)N1` (centres unmarked) [Compound B46, N-(3,5-Dichloropyridin-4-yl)-4-(difluoromethoxy)-3-((5-(4-(2-(2,6-dioxopiperidin-3-yl)-6-fluoro-1-oxoisoindolin-4-yl)piperidin-1-yl)pentyl)oxy)benzamide], the inhibition at 1 µM was no less than 60%.
